The source of these data is patent publication US4062948A, “Dihydromocimycin antibiotics” (Gist-Brocades N.V., priority 1970, dated 1977).

Assay [1] relates to microorganism causing Treponema dysentery. Put plainly: pigs infected with Treponema dysentery (Example VI). It counts as in vivo. From the text:
Twenty pigs, 3 months old, were infected with the microorganism causing Treponema dysentery by administering to them feed mixed with a homogenous mixture of contents of the intestines and intestinal mucous membranes of two animals suffereing from the disease. The infected pigs were divided into four groups of five animals each and the animals were fed with the feed as a slurry diluted 1:1 with water for 1 week. The total amount of feed per animal was 1.2 kg each day and was given in two portions.
After 5 days, the first symptoms of the disease were observed from the thin faeces and confirmed by a microbiological investigation of the faeces and […] a week, the animals were treated as follows:
group 2: 100 ppm of tylosin were added to the feed;
group 3: 25ppm of dihydromocimycin were added to the feed; and
group 4: 50 ppm of dihydromocimycin were added to the feed.
The antibiotic-enriched feed was administered for a week. After that week, feed without any antibiotic was given again. Recovery from the infection was observed from the weights of the animals and from inspection samples of the faeces, macroscopically from their consistencies, and microscopically by means of a specific immuno-fluoroescence technique. During the test, one animal of each of groups 1, 3 and 4 died.
The results are shown in the following Table wherein the weights indicated are the averages at that time of the still living animals. The consistency of the faeces is indicated as follows:
+ means thin liquid; ± means thick liquid; - means normal. The results of the immuno-fluorescence technique are indicated quantitatively by indicating the number of Treponemas in the visual field: 5 means very crowded; 4 means many; 3 means about 10 Treponemas; 2 means 1 or 2 Treponemas, 1 means more visual fields necessary to find one Treponema, and - means negative.

The test system of assay [2] is Actinobacillus equuli T 3. Put plainly: micro liquid serial dilution test (Table II). The following applies: T3, 18 hours at 30° C or 37° C, read-out: Minimum inhibitory concentration. It counts as cell-based. As to the method:
(§1) The microbiological activity of the antibiotic preparation towards a number of micoorganisms has been determined by a micro liquid serial dilution test:
(§2) A stock solution of the test compounds at a concentration of 200 μg/ml in 0.05 molar phosphate buffer at a pH of 6.5 was prepared and serial 1:1 dilutions were made with a liquid medium inoculated with the test organism, using conventional glass spot-test plates. The plates were incubated 18 hours at 30° C or 37° C. The minimum inhibitory concentration (MIC) which is the smallest concentration of compound completely inhibiting the growth of the test organism is read and calculated in μg/ml.

Another assay has as its system Aspergilus niger D 184. Put plainly: micro liquid serial dilution test (Table II). The format is cell-based. Particulars: 18 hours at 30° C or 37° C; read-out: Minimum inhibitory concentration. How it is done:
as §1, §2

For a further assay, the system named is Candida albicans A 7. In words: micro liquid serial dilution test (Table II). It counts as cell-based. Particulars: A7, 18 hours at 30° C or 37° C, read-out: Minimum inhibitory concentration. How it is done: as §1, §2
In a further assay the test system is Escherichia coli M. In words: micro liquid serial dilution test (Table II). It counts as cell-based. Particulars: 18 hours at 30° C or 37° C, read-out: Minimum inhibitory concentration. As to the method: as §1, §2
The test system of assay [3] is Escherichia coli NCTC 8196. In words: micro liquid serial dilution test (Table II). The format is cell-based. The following applies: NCTC8196, 18 hours at 30° C or 37° C, read-out: Minimum inhibitory concentration. How it is done:
as §1, §2

A further assay has as its system Escherichia coli U 20. In words: micro liquid serial dilution test (Table II). Particulars: U20, 18 hours at 30° C or 37° C, read-out: Minimum inhibitory concentration. The format is cell-based. How it is done: as §1, §2
The test system of assay [4] is Mycoplasma gallisepticum K 514. Put plainly: micro liquid serial dilution test (Table II). The format is cell-based. How it is done: as §1, §2
The test system of assay [5] is Mycoplasma suipneumoniae A 2174. In words: micro liquid serial dilution test (Table II). Particulars: Mesomycoplasma hyopneumoniae, A2174; 18 hours at 30° C or 37° C; read-out: Minimum inhibitory concentration. The format is cell-based. How it is done: as §1, §2
The subject of the next assay is Proteus mirabilis H 3. Put plainly: micro liquid serial dilution test (Table II). It counts as cell-based. Particulars: H3, 18 hours at 30° C or 37° C, read-out: Minimum inhibitory concentration. How it is done: as §1, §2
The test system of another assay is Proteus mirabilis L 93. Put plainly: micro liquid serial dilution test (Table II). Particulars: L93, 18 hours at 30° C or 37° C, read-out: Minimum inhibitory concentration. It counts as cell-based. As to the method:
as §1, §2

Another assay concerns Proteus rettgeri A 821. In words: micro liquid serial dilution test (Table II). The format is cell-based. The following applies: Providencia rettgeri, A821; 18 hours at 30° C or 37° C; read-out: Minimum inhibitory concentration. How it is done:
as §1, §2

Assay [6] deals with Salmonella typhimurium R 127. In words: micro liquid serial dilution test (Table II). Particulars: Salmonella enterica, 18 hours at 30° C or 37° C, read-out: Minimum inhibitory concentration. The format is cell-based. How it is done: as §1, §2
In another assay the test system is Sarcina lutea ATCC 9341. Put plainly: micro liquid serial dilution test (Table II). The format is cell-based. Particulars: Micrococcus luteus, ATCC9341; 18 hours at 30° C or 37° C; read-out: Minimum inhibitory concentration. As to the method:
as §1, §2

In assay [7] the test system is Staphylococcus aureus A 321. In words: micro liquid serial dilution test (Table II). It counts as cell-based. Particulars: A321, 18 hours at 30° C or 37° C, read-out: Minimum inhibitory concentration. How it is done: as §1, §2
In assay [8] the test system is Streptococcus agalactiae A 732. Put plainly: micro liquid serial dilution test (Table II). The format is cell-based. The following applies: A732, 18 hours at 30° C or 37° C, read-out: Minimum inhibitory concentration. As to the method:
as §1, §2

In assay [9] the test system is Streptococcus faecalis A 306. Put plainly: micro liquid serial dilution test (Table II). The following applies: Enterococcus faecalis, A306; 18 hours at 30° C or 37° C; read-out: Minimum inhibitory concentration. The format is cell-based. As to the method:
as §1, §2

The test system of assay [10] is Streptococcus faecalis L 80. Put plainly: micro liquid serial dilution test (Table II). It counts as cell-based. The following applies: Enterococcus faecalis, L80; 18 hours at 30° C or 37° C; read-out: Minimum inhibitory concentration. How it is done:
as §1, §2

Assay [11] relates to organisms of the Mycoplasma genus (pleuro-pneumonia like organisms). In words: in vitro activity against Mycoplasma genus. The format is cell-based.
Assay [12] in a line: growth promotion in slaughter chickens (Example II). It counts as in vivo. Particulars: feed additive. The text has this:
Slaughter chickens are given mocimycin in the form of the sodium salt obtained in Example 1, in a mixture with component of the feed (wheat flour), the amount of antibiotic in the feed (based on the weight of the feed) being as specified in the following Table, which gives the weight of the chickens after 3, 5 and 7 weeks.

Where [13] appears, read: dihydromocimycin 50 ppm, after 3 weeks, one symbol per animal.

SMILES strings stand for the structures. ≈ marks a conversion by molar mass, not a printed value.

Take `CC=CC=CC1OC(O)(C(CC)C(=O)NCC=CC=C(C)C(OC)C(C)C2OC(C=CC=CC=C(C)C(=O)C3=C(O)CCNC3=O)C(O)C2O)C(O)C(O)C1(C)C` (stereo not shown) [dihydromocimycin]: the “activity relative to tylosin” value in assay [1] (administered amounts taken into account) is on record as “at least 4 times”. Further, the Weights in assay [1] (dihydromocimycin 25 ppm group, after 1 week (start of antibiotics)) came to 21.3 kg; in assay [1] (dihydromocimycin 25 ppm group, just before infection (baseline)), 24.2 kg; in assay [1] (dihydromocimycin 25 ppm, after 2 weeks), 20.2 kg; in [1] (dihydromocimycin 25 ppm, after 3 weeks), 24.0 kg; in assay [1] (dihydromocimycin 50 ppm group, after 1 week (start of antibiotics)) it was 21.6 kg; in [1] (dihydromocimycin 50 ppm group, just before infection (baseline)) it was 23.4 kg. Also, the Weights came to 21.2 kg in assay [1] (dihydromocimycin 50 ppm, after 2 weeks) and 23.0 kg in [1] (dihydromocimycin 50 ppm, after 3 weeks). Further, the Faeces consistency entry in assay [1] (setting [13]) is on record as “-- +-”. Further, in assay [1] (setting [13]), the Immunofluorescence result is reported as “-- -- -- --”. The “speed of cure compared with tylosin” value in [1] (faeces consistency and immunofluorescence) is listed as “cured markedly faster than the animals treated with tylosin”. In addition, the “animals died during the test” value is recorded as “one” in [1] (group 3, dihydromocimycin 25 ppm) and “one” in assay [1] (group 4, dihydromocimycin 50 ppm).
For `CC=CC=CC1OC(O)(C(CC)C(=O)NCC=CC=C(C)C(OC)C(C)C2OC(C=CC=CC=C(C)C(=O)c3c(O)cc[nH]c3=O)C(O)C2O)C(O)C(O)C1(C)C` (stereo not shown) [mocimycin], the MIC was 1.5 µg/mL (≈ 1.88 µM) in [2]; above 100 µg/mL with Aspergilus niger D 184; above 100 µg/mL with Candida albicans A 7; above 100 µg/mL with Escherichia coli M; 50 µg/mL (≈ 62.7 µM) in [3]; above 100 µg/mL in the assay on Escherichia coli U 20. Besides, the MIC in [4] (Mycoplasmoides gallisepticum, K514, 18 hours at 30° C or 37° C, read-out: Minimum inhibitory concentration) is 0.1 µg/mL (≈ 0.125 µM); in assay [5] it was 1 µg/mL (≈ 1.25 µM); in the assay with Proteus mirabilis H 3 it was 50 µg/mL (≈ 62.7 µM); with Proteus mirabilis L 93, 100 µg/mL (≈ 125 µM); in the assay on Proteus rettgeri A 821 it was above 100 µg/mL; in assay [6], above 100 µg/mL. In addition, the MIC in the assay on Sarcina lutea ATCC 9341 is 25 µg/mL (≈ 31.4 µM); in assay [7] it was 100 µg/mL (≈ 125 µM); in assay [8] it was 0.9 µg/mL (≈ 1.13 µM); in [9], 1 µg/mL (≈ 1.25 µM); in [10], above 200 µg/mL. Also, in assay [4] (in vitro, summary of Table II), the “activity against Mycoplasma gallisepticum” value was “high activity”. For the same molecule, in assay [11], the activity in vitro result is given as “considerable activity in vitro”. Besides, the “growth of the chickens” value in assay [12] was “an increase in growth”.
